Results: patent publication US7714006B1, “Methods of modifying the bioavailability of metaxalone” (King Pharmaceuticals Research & Development, Inc., priority 2001, dated 2010)
Like-named read-outs stand apart in the source and are kept apart here.

Test: Food effect study: single oral Skelaxin 400 mg tablet with vs without food, healthy subjects, plasma pharmacokinetics
Format: in vivo, human
Settings: for AUC(0-inf) / AUC(0-t) / Cmax / half-life / Tmax: both sexes, human, plasma, oral, 400 mg; for half-life: read-out: T1/2, least squares mean (converted); for Tmax: read-out: Tmax, least squares mean
Method: The effect of food on metaxalone absorption was identified in a study designed to compare the bioavailability of 400 mg of metaxalone in the formulation the drug product Skelaxin® administered to healthy volunteers with and without food.
An objective was to evaluate the bioavailability of metaxalone when administered to subjects with and without food. A single center, single dose, open-label, two-period, randomized, crossover trial in healthy subjects was conducted over a period of approximately 32 days.
Treatment A: metaxalone tablet (400 mg) administered with food
Treatment B: metaxalone tablet (400 mg) administered without food
In fed treatment condition A, study drug was taken 15 minutes after the test meal. The test meal was consumed over a 15 minute time period. There was a 6-day washout period between study drug administrations. Seventeen blood samples were collected, starting with baseline (0 hour) and at the following time points: 0.5, 1, 1.5, 2, 2.5, 3, 3.5, 4, 4.5, 5, 6, 8, 12, 16; 24, and 36 hours.
A total of 44 subjects (31 males/13 females) were enrolled and dosed. Only the plasma of subjects who completed the study were assayed and used for the pharmacokinetic analysis.
A single center, single dose, open label, two-period crossover trial was devised for study in healthy subjects. Each administration was a single oral dose of one Skelaxin® 400 mg tablet with or without food. The study drug was administered as follows:
Treatment A: One (1) 400 mg tablet of metaxalone with 240 mL of room temperature water with food: Breakfast was given to the subjects 30 Minutes prior to dosing and eaten within a 15 minute period. The dose of study drug was administered to the subjects 15 minutes after the breakfast was finished.
Treatment B: One (1) 400 mg tablet of metaxalone with 240 mL of room temperature water without food. The study drug was administered with 240 mL room temperature water. A mouth check was performed to verify that the subjects swallowed the dose. Subjects were sequentially dosed at 1-minute intervals. The actual time of dosing was recorded on the Master Flow Sheet (refer to the Appendix 16.3.2 Clinical Study Data). Drug administration (1×400 mg tablet) was assisted with 240 mL of room temperature water consumed under direct observation. Immediately after administration of product, the subject's oral cavity was checked to confirm complete medication and fluid consumption. Dosing was completed as scheduled in 42 of 44 subjects.
The drug substance, metaxalone, was dosed in tablet form. Content 400 mg; Route: Oral, Batch/Lot No.: SKLWW263F; Expiration Date: FEB03; Manufacturer: West-Ward Pharmaceutical Corp.
All pharmacokinetic parameters were analyzed by noncompartmental methods. The following PK parameters were calculated for the two PK profiles and are defined as follows: […]
Tmax: Time to maximum concentration;
Cmax: Observed maximum concentration;
kel: Slope of terminal linear portion of concentration/time curve;
T1/2: Half-life of metaxalone calculated as: 0.693/Kel;
AUC(last): Area under the curve to last quantifiable concentration as measured by the trapezoidal rule;
AUC(inf): The AUC value extrapolated to infinity calculated as:
AUC(inf)=AUC(last)+C(t)last/Kel where C(t)last is the last measurable concentration.
All statistical analyses were performed using SAS® software version 6.08 or higher. The pharmacokinetic parameters between the two treatments were compared using an appropriate ANOVA model (analysis of variance) that includes terms for treatment, sequence, and period effect. Ninety percent confidence intervals were computed for the Cmax and AUC values of the fed treatment with fasting as the reference treatment. During the study there were no protocol deviations to confound the pharmacokinetic and bioavailability analyses. Study results were not corrected for drug potency.
Differences were declared to be significant at the 5% level. […]

[1] = Treatment A: 400 mg tablet with food
[2] = Treatment B: 400 mg tablet without food
[3] = fed vs fasted, ln-transformed data

Bioavailability when administered with food (400 mg tablets, single dose, with food vs without): increased | AUC(0-inf) (Treatment A: 400 mg tablet with food, read-out: AUC(inf), least squares mean): 8540 ng·h/mL | AUC(0-t) (Treatment A: 400 mg tablet with food, read-out: AUC(last), least squares mean): 8440 ng·h/mL | Cmax (Treatment A: 400 mg tablet with food, read-out: Cmax, least squares mean): 1770 ng/mL | AUC(0-inf) (Treatment A: 400 mg tablet with food, read-out: Ln-Transformed AUC(inf), geometric mean): 7630 ng·h/mL | AUC(0-t) (Treatment A: 400 mg tablet with food, read-out: Ln-Transformed AUC(last), geometric mean): 7520 ng·h/mL | Cmax (Treatment A: 400 mg tablet with food, read-out: Ln-Transformed Cmax, geometric mean): 1540 ng/mL | half-life [1]: 2.37 h | Tmax [1]: 4.29 h | AUC(0-inf) (Treatment B: 400 mg tablet without food, read-out: AUC(inf), least squares mean): 7480 ng·h/mL | AUC(0-t) (Treatment B: 400 mg tablet without food, read-out: AUC(last), least squares mean): 6960 ng·h/mL | Cmax (Treatment B: 400 mg tablet without food, read-out: Cmax, least squares mean): 983 ng/mL | AUC(0-inf) (Treatment B: 400 mg tablet without food, read-out: Ln-Transformed AUC(inf), geometric mean): 6620 ng·h/mL | AUC(0-t) (Treatment B: 400 mg tablet without food, read-out: Ln-Transformed AUC(last), geometric mean): 6090 ng·h/mL | Cmax (Treatment B: 400 mg tablet without food, read-out: Ln-Transformed Cmax, geometric mean): 865 ng/mL | half-life [2]: 9.04 h | Tmax [2]: 3.32 h | % Ratio (A/B) AUC(inf) [3]: 115.35% | % Ratio (A/B) AUC(last) [3]: 123.48% | % Ratio (A/B) Cmax [3]: 177.53%
SMILES: Cc1cc(C)cc(OCC2CNC(=O)O2)c1 (centres unmarked) [metaxalone, 5-[(3,5-dimethylphenoxy)methyl]-2 oxazolidinone]
